# Assay results taken from patent US20260200928A1, “THERAPEUTIC COMPOUNDS” (Sanofi, priority 2022, published 2026).
# Target: T1, human IL-17A (Homo sapiens, UniProt Q16552)
# T1 construct: purchased R&D Systems 7955-IL/CF
# T1 sequence (Q16552 24-155): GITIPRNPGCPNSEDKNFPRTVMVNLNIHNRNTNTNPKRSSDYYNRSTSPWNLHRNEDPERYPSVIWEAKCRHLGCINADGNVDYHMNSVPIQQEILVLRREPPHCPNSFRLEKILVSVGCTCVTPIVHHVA
# Test: IL-17A AlphaLISA competition assay (block of IL-17A binding to its receptor IL-17RA)
# Details: mean IC50 (n≥2), block of IL-17A binding to IL-17RA
# Outline: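 Human recombinant IL-17A (7.5 nM stock) pre-incubated 30 min at RT with compound, then IL-17RA/Fc (5 nM stock) added for 90 min; AlphaLISA read with anti-Fc acceptor beads, biotinylated anti-IL-17A antibody (5 nM) and streptavidin donor beads (3 h, dark). IC50 from 4-parameter logistic fit, normalised to DMSO and 4 μM reference inhibitor; n≥2.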
row,Molecule,IC50
1,"CC(c1ccnc(NC(=O)[C@@H](NC(=O)c2nonc2C2CC2)C2CCC(F)(F)CC2)c1)N1C[C@@H](C(F)(F)F)NC1=O (single isomer, unassigned) [Example 170, 4-cyclopropyl-N-((S)-1-(4,4-difluorocyclohexyl)-2-oxo-2-((4-((R or S)-1-((S)-2-oxo-4-(trifluoromethyl)imidazolidin-1-yl)ethyl)pyridin-2-yl)amino)ethyl)-1,2,5-oxadiazole-3-carboxamide]",21 nM
2,"COC[C@H](c1ccnc(NC(=O)C(NC(=O)c2nonc2C2CC2)C2CCC(F)CC2)c1)N1C[C@@H](C(F)(F)F)NC1=O (single isomer, unassigned) [Example 276]",24 nM
3,"COC[C@H](c1ccnc(NC(=O)[C@@H](NC(=O)c2conc2C(C)C)C2CCC(F)(F)CC2)c1)N1C[C@@H](C(F)(F)F)NC1=O [Example 197, N-((S)-1-(4,4-difluorocyclohexyl)-2-((4-((S)-2-methoxy-1-((S)-2-oxo-4-(trifluoromethyl)imidazolidin-1-yl)ethyl)pyridin-2-yl)amino)-2-oxoethyl)-3-isopropylisoxazole-4-carboxamide]",56 nM
4,"CCc1nocc1C(=O)N[C@H](C(=O)Nc1cc([C@@H](CC)N2C[C@@H](C(F)(F)F)NC2=O)ccn1)C1CCC(F)(F)CC1 [Example 210, N-((S)-1-(4,4-difluorocyclohexyl)-2-oxo-2-((4-((R)-1-((S)-2-oxo-4-(trifluoromethyl)imidazolidin-1-yl)propyl)pyridin-2-yl)amino)ethyl)-3-ethylisoxazole-4-carboxamide]",38 nM
5,"C[C@H]1CC[C@H]([C@H](NC(=O)c2ccnn2CCC(O)C(F)(F)F)C(=O)Nc2cc(CN3C[C@@H](C(F)(F)F)NC3=O)ccn2)CC1 (single isomer, unassigned) [Example 69]",126 nM
6,C[C@@H]1CN(Cc2ccnc(NC(=O)[C@@H](NC(=O)OC(C)(C)C)[C@H]3CC[C@H](C)CC3)c2)C(=O)N1 [Example 30],479 nM
7,"N-((S)-2-((4-((S)-1-(5,5-difluoro-2-oxotetrahydropyrimidin-1(2H)-yl)-2-methoxyethyl)pyridin-2-yl)amino)-1-(4,4-difluorocyclohexyl)-2-oxoethyl)-4-ethyl-1,2,5-oxadiazole-3-carboxamide [Example 183]",42 nM
8,"O=C(CCC(F)(F)F)NC(c1ccnc(NC(=O)[C@@H](NC(=O)c2ncco2)C2CCC(F)(F)CC2)c1)C1CC1 (stereo partly drawn) [Example 105, N-((1S)-2-((4-(cyclopropyl(4,4,4-trifluorobutanamido)methyl)pyridin-2-yl)amino)-1-(4,4-difluorocyclohexyl)-2-oxoethyl)oxazole-2-carboxamide]",3340 nM
9,"COCC(NC(=O)CCC(F)(F)F)c1ccnc(NC(=O)[C@@H](NC(=O)c2ccnn2C2CC2)C2CCC(F)(F)CC2)c1 (single isomer, unassigned) [Example 139]",265 nM
10,"Cn1nccc1C(=O)NC(C(=O)Nc1cc(C(C)(C)N2C[C@@H](C(F)(F)F)NC2=O)ccn1)C1CCC(F)(F)CC1 (stereo in doubt) [Example 172, N—((S)-1-(4,4-difluorocyclohexyl)-2-oxo-2-((4-(2-((S)-2-oxo-4-(trifluoro-methyl)imidazolidin-1-yl)propan-2-yl)pyridin-2-yl)amino)ethyl)-1-methyl-1H-pyrazole-5-carboxamide]",1170 nM
11,"CCc1nonc1C(=O)N[C@H](C(=O)Nc1cc([C@@H](CC)N2C[C@@H](C(F)(F)F)NC2=O)ccn1)C1CCC(F)(F)CC1 [Example 209, N-((S)-1-(4,4-difluorocyclohexyl)-2-oxo-2-((4-((R)-1-((S)-2-oxo-4-(trifluoromethyl)imidazolidin-1-yl)propyl)pyridin-2-yl)amino)ethyl)-4-ethyl-1,2,5-oxadiazole-3-carboxamide]",23 nM
12,"CC(C)n1nccc1C(=O)NC(C(=O)Nc1cc(Cc2cccc(=O)n2C)ccn1)C1CCC(F)(F)CC1 (centres unmarked) [Example 35, N-(1-(4,4-difluorocyclohexyl)-2-((4-((1-methyl-6-oxo-1,6-dihydropyridin-2-yl)methyl)pyridin-2-yl)amino)-2-oxoethyl)-1-isopropyl-1H-pyrazole-5-carboxamide]",23500 nM
13,"COC[C@H](c1ccnc(NC(=O)[C@@H](NC(=O)c2ccnn2C(C)C)[C@H]2CCCC(F)(F)C2)c1)N1C[C@@H](C(F)(F)F)NC1=O (single isomer, unassigned) [Example 309]",98 nM
14,"CCn1nccc1C(=O)N[C@H](C(=O)Nc1cc([C@@H](COC)N2C[C@@H](C(F)(F)F)NC2=O)ccn1)C1CCC(F)(F)CC1 [Example 201, N-((S)-1-(4,4-difluorocyclohexyl)-2-((4-((S)-2-methoxy-1-((S)-2-oxo-4-(trifluoromethyl)imidazolidin-1-yl)ethyl)pyridin-2-yl)amino)-2-oxoethyl)-1-ethyl-1H-pyrazole-5-carboxamide]",70 nM
15,"CC1CCC(C(NC(=O)c2ccnn2C)C(=O)Nc2cc(C(C)N3CC(C(F)(F)F)NC3=O)ccn2)CC1 [Example 240, 1-methyl-N-((S)-1-((1r,4S)-4-methylcyclohexyl)-2-oxo-2-((4-((R)-1-((S)-2-oxo-4-(trifluoromethyl)imidazolidin-1-yl)ethyl)pyridin-2-yl)amino)ethyl)-1H-pyrazole-5-carboxamide]",16 nM
16,"CCn1nccc1C(=O)N[C@H](C(=O)Nc1cc(C(COC)N2C[C@@H](C(F)(F)F)NC2=O)ccn1)[C@H]1CC[C@H](C)CC1 (single isomer, unassigned) [Example 124]",20 nM
17,"COC[C@H](c1ccnc(NC(=O)[C@@H](NC(=O)c2conc2C)C2CCC(Cl)CC2)c1)N1C[C@@H](C(F)(F)F)NC1=O (stereo partly drawn) [Example 313, N-((1S)-1-(4-chlorocyclohexyl)-2-((4-((S)-2-methoxy-1-((S)-2-oxo-4-(trifluoromethyl)imidazolidin-1-yl)ethyl)pyridin-2-yl)amino)-2-oxoethyl)-3-methylisoxazole-4-carboxamide]",109 nM
18,"CC(C)(C)OC(=O)NC(C(=O)Nc1cc(CN2C[C@@H](C(F)(F)F)NC2=O)ccn1)C1CCC(F)(F)CC1 (stereo in doubt) [Example 6, Tert-butyl N-[(1S)-1-(4,4-difluorocyclohexyl)-2-oxo-2-[[4-[[(4S)-2-oxo-4-(trifluoro-methyl)imidazolidin-1-yl]methyl]-2-pyridyl]amino]ethyl]carbamate]",566 nM
19,"[2H]C(c1ccnc(NC(=O)[C@@H](NC(=O)c2nonc2C2CC2)[C@H]2CC[C@H](C)CC2)c1)N1C[C@@H](C(F)(F)F)NC1=O (stereo partly drawn) [Example 231, 4-Cyclopropyl-N-((1S)-1-((1r,4S)-4-methylcyclohexyl)-2-oxo-2-((4-(((S)-2-oxo-4-(trifluoromethyl)imidazolidin-1-yl)methyl-d)pyridin-2-yl)amino)ethyl)-1,2,5-oxadiazole-3-carboxamide]",38 nM
20,"CC[C@H](c1ccnc(NC(=O)[C@@H](NC(=O)c2nonc2C2CC2)C2CCC(F)(F)CC2)c1)N1C[C@@H](C(F)(F)F)NC1=O [Example 212, 4-cyclopropyl-N-((S)-1-(4,4-difluorocyclohexyl)-2-oxo-2-((4-((R)-1-((S)-2-oxo-4-(trifluoromethyl)imidazolidin-1-yl)propyl)pyridin-2-yl)amino)ethyl)-1,2,5-oxadiazole-3-carboxamide]",23 nM
21,"COCC(c1ccnc(NC(=O)[C@@H](NC(=O)c2nonc2C2CC2)[C@H]2CC[C@H](C)CC2)c1)N1C[C@@H](C(F)(F)F)NC1=O (single isomer, unassigned) [Example 59]",61 nM
22,"COC[C@H](c1ccnc(NC(=O)C(NC(=O)c2conc2C)C2CCC(F)CC2)c1)N1C[C@@H](C(F)(F)F)NC1=O (single isomer, unassigned) [Example 283]",97 nM
23,"COC[C@H](c1ccnc(NC(=O)[C@@H](NC(=O)c2nonc2C2CC2)C2CCC(F)(F)CC2)c1)N1C[C@@H](C(F)(F)F)NC1=O [Example 200, 4-cyclopropyl-N-((S)-1-(4,4-difluorocyclohexyl)-2-((4-((S)-2-methoxy-1-((S)-2-oxo-4-(trifluoromethyl)imidazolidin-1-yl)ethyl)pyridin-2-yl)amino)-2-oxoethyl)-1,2,5-oxadiazole-3-carboxamide]",18 nM
24,"CCc1nocc1C(=O)N[C@@H](COC(C)(C)C(F)(F)F)C(=O)Nc1cc([C@@H](COC)N2C[C@@H](C(F)(F)F)NC2=O)ccn1 [Example 267, 3-ethyl-N-((S)-1-((4-((S)-2-methoxy-1-((S)-2-oxo-4-(trifluoromethyl)imidazolidin-1-yl)ethyl)pyridin-2-yl)amino)-1-oxo-3-((1,1,1-trifluoro-2-methylpropan-2-yl)oxy)propan-2-yl)isoxazole-4-carboxamide]",27 nM
25,"COC[C@H](c1ccnc(NC(=O)[C@@H](NC(=O)c2cnoc2C(C)C)[C@@H]2C[C@H]3C[C@H]3C2)c1)N1C[C@@H](C(F)(F)F)NC1=O [Example 319, N—((S)-1-((1R,3s,5S)-bicyclo[3.1.0]hexan-3-yl)-2-((4-((S)-2-methoxy-1-((S)-2-oxo-4-(trifluoromethyl)imidazolidin-1-yl)ethyl)pyridin-2-yl)amino)-2-oxoethyl)-5-isopropylisoxazole-4-carboxamide]",38 nM
26,"CCc1nocc1C(=O)N[C@H](C(=O)Nc1cc([C@@H](COC)N2C[C@@H](C(F)(F)F)NC2=O)ccn1)C1CCC(Cl)CC1 (stereo partly drawn) [Example 317, N-((1S)-1-(4-chlorocyclohexyl)-2-((4-((S)-2-methoxy-1-((S)-2-oxo-4-(trifluoromethyl)imidazolidin-1-yl)ethyl)pyridin-2-yl)amino)-2-oxoethyl)-3-ethylisoxazole-4-carboxamide]",19 nM
